Test results as given in patent publication US9096593B2, “Compounds and methods for kinase modulation, and indications therefor” (Plexxikon Inc., priority 2009, dated 2015).
Read-outs that look alike come from different tables or passages of the source.

Key:
BCR-FMS/BaF3 cells = BCR-FMS/BaF3 cells (Homo sapiens, UniProt P07333); experiment: BCR-FMS/BaF3 cell proliferation assay (ATPlite); format: cell-based
How it was run: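 BCR-FMS/BaF3 cells at 2×10^5 cells/mL in growth media with 1 mg/mL G418, without WEHI/IL-3, treated with 8-point 1:3 compound titrations (top 10 μM final) for 3 days at 37 °C, 5% CO2. Cell number by ATPlite luminescence; IC50 from signal versus concentration.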

BCR-KIT/BaF3 cells = BCR-KIT/BaF3 cells (Homo sapiens, UniProt P10721); experiment: BCR-KIT/BaF3 cell proliferation assay (ATPlite); format: cell-based; settings: read-out: BCR/BaF3 (IC50 μM) Kit
BCR-KIT/BaF3 cells, sequence (P10721 26-976 limits assumed, change not shown): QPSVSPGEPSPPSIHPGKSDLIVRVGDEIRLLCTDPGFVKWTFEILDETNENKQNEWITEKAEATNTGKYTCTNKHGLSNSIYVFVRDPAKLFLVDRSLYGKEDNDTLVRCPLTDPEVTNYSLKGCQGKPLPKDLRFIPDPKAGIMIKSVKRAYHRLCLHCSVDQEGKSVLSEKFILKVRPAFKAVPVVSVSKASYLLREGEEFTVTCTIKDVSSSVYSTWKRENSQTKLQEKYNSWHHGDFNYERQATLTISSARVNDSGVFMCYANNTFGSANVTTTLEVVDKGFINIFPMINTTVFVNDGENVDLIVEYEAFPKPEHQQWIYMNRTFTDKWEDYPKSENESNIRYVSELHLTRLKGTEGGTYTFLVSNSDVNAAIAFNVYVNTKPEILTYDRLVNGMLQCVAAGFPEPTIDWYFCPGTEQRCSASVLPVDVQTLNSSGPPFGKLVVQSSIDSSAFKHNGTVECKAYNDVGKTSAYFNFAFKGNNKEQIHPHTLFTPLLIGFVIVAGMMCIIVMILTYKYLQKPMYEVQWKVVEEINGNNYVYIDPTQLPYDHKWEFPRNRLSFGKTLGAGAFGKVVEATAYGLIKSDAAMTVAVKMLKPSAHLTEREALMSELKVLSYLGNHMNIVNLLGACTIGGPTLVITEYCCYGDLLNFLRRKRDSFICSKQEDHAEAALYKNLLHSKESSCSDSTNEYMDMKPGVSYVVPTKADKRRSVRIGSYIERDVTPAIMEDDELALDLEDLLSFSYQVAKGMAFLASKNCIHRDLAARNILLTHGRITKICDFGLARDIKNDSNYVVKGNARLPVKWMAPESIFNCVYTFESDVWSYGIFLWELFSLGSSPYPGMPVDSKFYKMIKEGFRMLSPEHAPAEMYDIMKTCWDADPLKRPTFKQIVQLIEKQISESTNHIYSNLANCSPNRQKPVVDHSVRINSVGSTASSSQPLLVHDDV
Experimental: Compounds are assessed in a variety of cell based assays. For example BCR-FMS/BaF3, BCR-KIT/BaF3, M-NFS-60, M-07e, and BAC1.2F5 cell proliferation assays are used to assess inhibitory activity of Fms or Kit and MV-4-11 cell proliferation assay is used to assess inhibitory activity in Flt-3. Reagent and assay conditions are as follows: • BCR-FMS/BaF3 and BCR-KIT/BaF3 cells: • Maintained in RPMI containing 10% FBS, 1% PenStrep, 1% NEAA, and 1% L-Glutamine, supplemented with 1 mg/mL G418 and 5% WEHI-CM (or recombinant murine IL-3). • Confluent cells are split 1:50 to 1:100 every 3-4 days. • M-NFS-60 cells (ATCC #CRL-1838): • Maintained in RPMI containing 10% FBS, 1% Hepes, 1% NaPyruvate, and 0.45% Glucose, supplemented with 62 ng/mL murine M-CSF. • Confluent cells are split 1:20 every 3-4 days. • M-07e cells (DSMZ #ACC 104): • Maintained in IMDM containing 10% FBS, supplemented with either 200 ng/mL human SCF or […] SCF (R&D Systems 255-SC). • Confluent cells are split 1:5 to 1:10 every 3-4 days. • BAC1.2F5 cells: • Maintained in Alpha-MEM containing 10% Newborn Calf Serum (Invitrogen #26010-074) supplemented with 36 ng/mL murine M-CSF. • Confluent cells are split 1:4 every 3-4 days. • MV-4-11 cells: • Maintained in Iscove's Modified Dulbecco's Medium containing 10% FBS. • Confluent cells are split 1:4 every 3-4 days. On day 1, cells are counted, then centrifuged in a conical tube for 5 minutes at 1000 rpm. The supernatant is removed and cells are re-suspended as follows: • BCR-FMS/BaF3 and BCR-KIT/BaF3: resuspend in growth media+1 mg/mL G418 (without WEHI/IL-3) to 2×10^5 cells/mL. • M-NFS-60: resuspend in growth media +62 ng/mL murine M-CSF to 5×10^5 cells/mL. • M-07e: resuspend in growth media +200 ng/mL human SCF to 5×10^5 cells/mL. • BAC1.2F5: resuspend in growth media +36 ng/mL murine M-CSF to 1.4×10^5 cells/mL. • MV-4-11: resuspend in growth media +10% FBS to 5×10^5 cells/mL. The cells are plated (50 μL) in each well of a 96-well dish (Corning 3610) and incubated at 37° C. in 5% CO2 overnight, cells plated to a final concentration of cells as follows: • BCR-FMS/BaF3 and BCR-KIT/BaF3: 10,000 cells per well. • M-NFS-60: 25,000 cells per well. • M-07e: 25,000 cells per well. • BAC1.2F5: 7,000 cells per well. • MV-4-11: 25,000 cells per well. On day 2, compound at a maximum concentration of 5 mM is serially diluted 1:3 for a total of 8 point titration with DMSO as a control. A 1 μL aliquot of each dilution point is added to 249 μL growth media and 50 μL is added to a well containing cells, providing 10 μM compound for the maximum concentration point. The cells are incubated for 3 days at 37° C. in 5% CO2. On day 5, ATPlite 1 step Luminescence Assay System (Perkin Elmer #6016739) is brought to room temperature along with the cell cultures. ATPlite is added to each well as follows: • BCR-FMS/BaF3 and BCR-KIT/BaF3: 25 μL per well. • M-NFS-60: 25 μL per well. • M-07c: 40 μL per well. • BAC1.2F5: 50 μL per well. • MV-4-11: 40 μL per well. The cells are incubated at room temperature for 10 minutes, then luminescence is read on Safire reader. The measured luminescence correlates directly with cell number, such that the reading as a function of compound concentration is used to determine the IC50 value.

[1] = Kit IC50/Fms IC50, BCR-KIT/BaF3 vs BCR-FMS/BaF3 cells
[2] = read-out: BCR/BaF3 (IC50 μM) Fms; BCR-FMS/BaF3 cells
[3] = BCR-FMS/BaF3 cells; read-out: BCR/BaF3 (IC50 μM) Fms
[4] = read-out: Cell based (IC50 μM) BCR/BaF3 (Fms); BCR-FMS/BaF3 cells, 3 days

BCR-FMS/BaF3 cells, sequence (P07333 20-972 limits assumed, change not shown): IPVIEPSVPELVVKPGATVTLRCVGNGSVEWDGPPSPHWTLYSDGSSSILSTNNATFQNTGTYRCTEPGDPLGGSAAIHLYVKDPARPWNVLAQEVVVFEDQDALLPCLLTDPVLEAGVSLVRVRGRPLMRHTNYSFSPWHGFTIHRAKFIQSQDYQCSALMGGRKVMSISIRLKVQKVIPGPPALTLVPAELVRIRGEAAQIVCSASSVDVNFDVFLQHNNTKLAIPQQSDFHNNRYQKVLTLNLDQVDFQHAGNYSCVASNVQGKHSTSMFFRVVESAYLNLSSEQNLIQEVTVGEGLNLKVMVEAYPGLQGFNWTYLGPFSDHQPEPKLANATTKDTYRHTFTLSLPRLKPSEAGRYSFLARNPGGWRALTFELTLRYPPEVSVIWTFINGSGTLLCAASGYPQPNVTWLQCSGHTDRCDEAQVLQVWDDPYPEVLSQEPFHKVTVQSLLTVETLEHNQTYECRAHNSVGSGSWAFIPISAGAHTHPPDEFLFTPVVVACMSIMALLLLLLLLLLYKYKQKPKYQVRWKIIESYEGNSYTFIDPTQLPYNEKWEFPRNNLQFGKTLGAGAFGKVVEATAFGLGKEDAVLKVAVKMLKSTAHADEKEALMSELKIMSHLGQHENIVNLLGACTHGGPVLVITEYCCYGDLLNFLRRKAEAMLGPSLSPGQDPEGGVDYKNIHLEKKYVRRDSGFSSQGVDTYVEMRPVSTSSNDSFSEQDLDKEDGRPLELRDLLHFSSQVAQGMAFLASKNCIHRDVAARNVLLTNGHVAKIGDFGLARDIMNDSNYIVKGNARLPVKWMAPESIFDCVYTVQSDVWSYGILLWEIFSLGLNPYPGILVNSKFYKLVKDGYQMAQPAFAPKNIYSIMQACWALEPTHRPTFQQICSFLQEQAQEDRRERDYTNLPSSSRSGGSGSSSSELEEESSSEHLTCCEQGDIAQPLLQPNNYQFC

Structure (SMILES)	BCR/BaF3 selectivity (Kit IC50/Fms IC50) (BCR-FMS/BaF3 cells; [1])	IC50 (BCR-FMS/BaF3 cells; [2]) [µM]	IC50 (BCR-KIT/BaF3 cells) [µM]	IC50 (BCR-FMS/BaF3 cells; [3]) [µM]	IC50 (BCR-FMS/BaF3 cells; [4]) [µM]
COc1cnc2[nH]cc(Cc3cnc(NCc4ccc(C(F)(F)F)nc4)c(F)c3)c2c1 [Compound P-2147, [3-Fluoro-5-(5-methoxy-1H-pyrrolo[2,3-b]pyridin-3-ylmethyl)-pyridin-2-yl]-(6-trifluoromethyl-pyridin-3-ylmethyl)-amine]	<20	< 0.1	< 0.1		
CCS(=O)(=O)Nc1cc(F)cc(CNc2ccc(Cc3c[nH]c4ncc(C)cc34)c(F)n2)c1 [Compound P-2202, Ethanesulfonic acid (3-fluoro-5-{[6-fluoro-5-(5-methyl-1H-pyrrolo[2,3-b]pyridin-3-ylmethyl)-pyridin-2-ylamino]-methyl}-phenyl)-amide]	<20		> 0.1	< 0.1	
COc1cc(CNc2ccc(Cc3c[nH]c4ncc(C)cc34)c(F)n2)c(F)cn1 [Compound P-2071, (5-Fluoro-2-methoxy-pyridin-4-ylmethyl)-[6-fluoro-5-(5-methyl-1H-pyrrolo[2,3-b]pyridin-3-ylmethyl)-pyridin-2-yl]-amine]	>20	> 0.1	> 0.1		
Cc1cnc2[nH]cc(Cc3cnc(NCc4cccnc4OC4CCCC4)nc3)c2c1 [Compound P-2148, (2-Cyclopentyloxy-pyridin-3-ylmethyl)-[5-(5-methyl-1H-pyrrolo[2,3-b]pyridin-3-ylmethyl)-pyrimidin-2-yl]-amine]	<20		> 0.1	< 0.1	
Cc1cnc2[nH]cc(Cc3ccc(NCc4ccc(C(F)(F)F)nc4)nc3)c2c1 [Compound P-2019, [5-(5-Methyl-1H-pyrrolo[2,3-b]pyridin-3-ylmethyl)-pyridin-2-yl]-(6-trifluoromethyl-pyridin-3-ylmethyl)-amine]	<20	< 0.1	< 0.1		< 0.1
CS(=O)(=O)Nc1cnc2[nH]cc(Cc3ccc(NCc4ccc(Cl)nc4)nc3F)c2c1 [Compound P-1679, N-(3-{6-[(6-Chloro-pyridin-3-ylmethyl)-amino]-2-fluoro-pyridin-3-ylmethyl}-1H-pyrrolo[2,3-b]pyridin-5-yl)-methanesulfonamide]	>20	< 0.1	> 0.1		
COc1ccc(CNc2ncc(Cc3c[nH]c4ncc(C)cc34)cn2)cn1 [Compound P-2057, (6-Methoxy-pyridin-3-ylmethyl)-[5-(5-methyl-1H-pyrrolo[2,3-b]pyridin-3-ylmethyl)-pyrimidin-2-yl]-amine]	>20	< 0.1	> 0.1		< 0.1
COc1cnc2[nH]cc(Cc3ccc(NCc4ccc(Cl)cc4)nc3F)c2c1 [Compound P-2032, (4-Chloro-benzyl)-[6-fluoro-5-(5-methoxy-1H-pyrrolo[2,3-b]pyridin-3-ylmethyl)-pyridin-2-yl]-amine]	<20	< 0.1	< 0.1		< 0.1
COc1ccc(CNc2ncc(Cc3c[nH]c4ncc(C)cc34)cc2F)cn1 [Compound P-1562, [3-Fluoro-5-(5-methyl-1H-pyrrolo[2,3-b]pyridin-3-ylmethyl)-pyridin-2-yl]-(6-methoxy-pyridin-3-ylmethyl)-amine]	<20	< 0.1	> 0.1		
Cc1cnc2[nH]cc(Cc3ccc(NCc4cnccc4C(F)(F)F)nc3F)c2c1 [Compound P-2062, [6-Fluoro-5-(5-methyl-1H-pyrrolo[2,3-b]pyridin-3-ylmethyl)-pyridin-2-yl]-(4-trifluoromethyl-pyridin-3-ylmethyl)-amine]	>20	< 0.1	> 0.1		
Cc1cnc2[nH]cc(Cc3ccc(NCc4ccc(Cl)nc4)nc3F)c2c1 [Compound P-2088, (6-Chloro-pyridin-3-ylmethyl)-[6-fluoro-5-(5-methyl-1H-pyrrolo[2,3-b]pyridin-3-ylmethyl)-pyridin-2-yl]-amine]	>20	< 0.1	> 0.1		
Cc1cnc2[nH]cc(Cc3ccc(NCc4ccnc(F)c4)nc3F)c2c1 [Compound P-2118, [6-Fluoro-5-(5-methyl-1H-pyrrolo[2,3-b]pyridin-3-ylmethyl)-pyridin-2-yl]-(2-fluoro-pyridin-4-ylmethyl)-amine]	>20	< 0.1	> 0.1		
COc1ncc(F)cc1CNc1ncc(Cc2c[nH]c3ncc(Cl)cc23)cn1 [Compound P-2064, [5-(5-Chloro-1H-pyrrolo[2,3-b]pyridin-3-ylmethyl)-pyrimidin-2-yl]-(5-fluoro-2-methoxy-pyridin-3-ylmethyl)-amine]	>20	< 0.1	> 0.1		
COc1cnc2[nH]cc(Cc3ccc(NCc4cccnc4OC)nc3F)c2c1 [Compound P-2043, [6-Fluoro-5-(5-methoxy-1H-pyrrolo[2,3-b]pyridin-3-ylmethyl)-pyridin-2-yl]-(2-methoxy-pyridin-3-ylmethyl)-amine]	>20	< 0.1	> 0.1		
COc1ccc(CNc2ccc(Cc3c[nH]c4ncc(C)cc34)c(F)n2)c(OC)n1 [Compound P-2097, (2,6-Dimethoxy-pyridin-3-ylmethyl)-[6-fluoro-5-(5-methyl-1H-pyrrolo[2,3-b]pyridin-3-ylmethyl)-pyridin-2-yl]-amine]	>20	< 0.1	> 0.1		
Cc1cnc2[nH]cc(Cc3ccc(NCc4cnccc4C(F)(F)F)nc3)c2c1 [Compound P-2070, [5-(5-Methyl-1H-pyrrolo[2,3-b]pyridin-3-ylmethyl)-pyridin-2-yl]-(4-trifluoromethyl-pyridin-3-ylmethyl)-amine]	>20		> 0.1	< 0.1	
Cc1cccc(CNc2ncc(Cc3c[nH]c4ncc(Cl)cc34)cn2)c1 [Compound P-2013, [5-(5-Chloro-1H-pyrrolo[2,3-b]pyridin-3-ylmethyl)-pyrimidin-2-yl]-(3-methyl-benzyl)-amine]	<20		> 0.1	< 0.1	
Cc1cnc2[nH]cc(Cc3cnc(NCc4cccc(N5CCOCC5)n4)nc3)c2c1 [Compound P-2081, [5-(5-Methyl-1H-pyrrolo[2,3-b]pyridin-3-ylmethyl)-pyrimidin-2-yl]-(6-morpholin-4-yl-pyridin-2-ylmethyl)-amine]	<20	> 0.1	> 0.1		
